Results reported in patent US4705799A, “Aminomethyl oxooxazolidinyl benzenes useful as antibacterial agents” (E. I. Du Pont de Nemours and Company, priority 1985, dated 1987).
≈ marks a conversion by molar mass, not a printed value. Counter-ions that a name gives are not always drawn. Like-named read-outs stand apart in the source and are kept apart here.

Experiments:
Escherichia coli = assay: In vitro broth dilution minimal inhibitory concentration (standard microdilution method); type: cell-based; conditions: Escherichia coli, read-out: Microdilution Broth MIC
[1] = system: Staphylococcus epidermidis; assay: as above; type: cell-based; conditions: 24 h, read-out: Microdilution Broth MIC
Staphylococcus aureus [2] = assay: In vivo efficacy of compounds administered subcutaneously in mouse intraperitoneal infections; conditions: sc, 168 h; mouse i.p. Staphylococcus aureus infection; subcutaneous; dosed at infection and 4 h post-infection; 7 days; read-out: ED50 (50 percent effective dose)
Description: (§1) Determinations of in vivo efficacy are performed by inoculating mice intraperitoneally with cultures of the infecting organism diluted to produce 90-100% mortality in control animals within twenty-four hours. The diluents used were trypticase soy broth for E. coli and 5% aqueous hog gastric mucin for Staphylococcus aureus infections. The compounds are dissolved or suspended in 0.25% aqueous Methocel® (Methocel®: Hydroxypropyl Methylcellulose E15 Premium, Dow Chemical Company) for oral administration or sterile distilled water containing 5% dimethylsulfoxide (Fisher Scientific Company, Fairlawn, N.J.) for subcutaneous administration. The mice are dosed at the time of infection and again at four hours post-infection. Mortality is recorded daily until test termination seven days post infection and the 50 percent effective dose, ED50, is calculated by the Reed-Muench method (Reed, L. G. and Muench, H., "A simple method of estimating fifty percent end points," American Journal of Hygiene, 27, 493-497 (1938).

Staphylococcus aureus [3] = assay: In vivo efficacy of orally administered compounds in mouse intraperitoneal infections; conditions: Staphylococcus aureus, po, 168 h, read-out: ED50 (50 percent effective dose)
Description: as §1

[4] = mouse i.p. Staphylococcus aureus infection, oral, dosed at infection and 4 h post-infection, 7 days

SMILES	MIC (Escherichia coli; Mueller-Hinton broth, 24-hour) [µg/mL]	MIC ([1]; Mueller-Hinton broth, 24-hour) [µg/mL]	ED50 (Staphylococcus aureus [2]) [mg/kg]	ED50 (Staphylococcus aureus [3]; [4]) [mg/kg]	ED50 (Staphylococcus aureus [3]) [mg/kg]	MIC (Escherichia coli; 24 h) [µg/mL]	MIC [1] [µg/mL]
CS(=O)(=O)c1ccc(N2CC(CN)OC2=O)cc1 (racemic) [Example 10, (dl)-5-Aminomethyl-3-[4-(methylsulfonyl)phenyl]-2-oxazolidinone trifluoroacetic Acid Salt]	> 100	50					
CC(C)c1ccc(N2CC(CNC(=O)CN)OC2=O)cc1 (racemic) [Example 157, (dl)-2-Amino-N-[3-[4-(1-methylethyl)phenyl]-2-oxooxazolidin-5-ylmethyl]acetamide]	> 200	50 (≈ 172 µM)	19.6	58.9			
NCC1CN(c2ccc(S(N)(=O)=O)cc2)C(=O)O1 (single isomer, unassigned) [Example 12, (l)-4-[5-(Aminomethyl)-2-oxooxazolidin-3-yl]benzenesulfonamide]	> 100	> 100	89.8	179			
NS(=O)(=O)c1ccc(N2CC(CNC=O)OC2=O)cc1 (single isomer, unassigned) [Example 24, (l)-N-[3-[4-(Aminosulfonyl)phenyl]-2-oxooxazolidin-5-ylmethyl]formamide]	> 100	> 100		74.3			
CC(=O)NCC1CN(c2ccc(C(C)=NN)cc2)C(=O)O1 (single isomer, unassigned) [Example 131, (l)-N-[3-[4-(1-Hydrazonoethyl)phenyl]-2-oxo-5-oxazolidinylmethyl]acetamide]	100 (≈ 344 µM)	3.1 (≈ 10.7 µM)	< 4.4	< 4.4			
CC(=O)NCC1CN(c2ccc([N+](=O)[O-])cc2[N+](=O)[O-])C(=O)O1 (single isomer, unassigned) [Example 147, (l)-N-[3-(2,4-Dinitrophenyl)-2-oxooxazolidin-5-ylmethyl]acetamide]					44.4	> 200	200 (≈ 617 µM)
CC(=O)NCC1CN(c2ccc(NC(C)=O)cc2)C(=O)O1 (single isomer, unassigned) [Example 150, (l)-N-[3-[4-(Acetylamino)phenyl]-2-oxooxazolidin-5-ylmethyl]acetamide]	> 200	200 (≈ 687 µM)	12.5	56.9			
CC(=O)NCC1CN(c2ccc(SCC#N)cc2)C(=O)O1 (single isomer, unassigned) [Example 154, (l)-N-[3-[4-(Cyanomethylthio)phenyl]-2-oxooxazolidin-5-ylmethyl]acetamide]	> 200	3.2 (≈ 10.5 µM)					
CON=C(C)c1ccc(N2CC(CNC(C)=O)OC2=O)cc1 (single isomer, unassigned) [Example 160, (l)-N-[3-(4-Acetylphenyl)-2-oxooxazolidin-5-ylmethyl]acetamide Oxime, methyl ether]	> 200	12.5 (≈ 40.9 µM)	< 4.4	< 4.4			
CC(=O)NCC1CN(c2ccc(C(=O)C=CN(C)C)cc2)C(=O)O1 (single isomer, unassigned) [Example 162]	> 128	32 (≈ 96.6 µM)	20.9	11.3			
CC(=O)NCC1CN(c2ccc(CBr)cc2)C(=O)O1 (single isomer, unassigned) [Example 166, (l)-N-[3-[4-(Bromomethyl)phenyl]-2-oxooxazolidin-5-ylmethyl]acetamide]	> 128	64 (≈ 196 µM)					
CC(=O)NCC1CN(c2ccc(SCCO)cc2)C(=O)O1 (single isomer, unassigned) [Example 167, (l)-N-[3-[4-(2-Hydroxyethylthio)phenyl]-2-oxooxazolidin-5-ylmethyl]acetamide]	> 200	3.1 (≈ 9.99 µM)	10.8	68.2			
CC(=O)c1ccc(N2CC(CN)OC2=O)cc1 (single isomer, unassigned) [Example 170, (l)-3-(4-Acetylphenyl)-5-(aminomethyl)-2-oxazolidinone hydrochloride]	> 128	> 128	25.3	32.3			
CC(=O)NCC1CN(c2ccc(C(=O)COC(C)=O)cc2)C(=O)O1 (single isomer, unassigned) [Example 183, (l)-N-[3-[4-(Acetyloxyacetyl)phenyl]-2-oxo-5-oxazolidinylmethyl]acetamide]	64 (≈ 191 µM)	0.5 (≈ 1.5 µM)	3.4	9.1			
CC(=O)NCC1CN(c2ccc(C=O)cc2)C(=O)O1 (single isomer, unassigned) [Example 185, (l)-N-[3-(4-Formylphenyl)-2-oxo-5-oxazolidinylmethyl]acetamide]	> 128	> 128	35.9				
CSc1ccc(N2CC(CN=[N+]=[N-])OC2=O)cc1 (stereo not drawn) [Example 4]	> 200	> 200		43.3			
CS(=O)(=O)c1ccc(N2CC(CNC(=O)C(F)(F)F)OC2=O)cc1 (stereo not drawn) [Example 28]	50 (≈ 136 µM)	12.5 (≈ 34.1 µM)		71.3			
CCCC(=O)NCC1CN(c2ccc(S(C)(=O)=O)cc2)C(=O)O1 (stereo not drawn) [Example 29]	100 (≈ 294 µM)	12.5 (≈ 36.7 µM)		88.7			

SMILES	MIC (Escherichia coli; Mueller-Hinton broth, 24-hour) [µg/mL]	MIC ([1]; Mueller-Hinton broth, 24-hour) [µg/mL]	ED50 (Staphylococcus aureus [2]) [mg/kg]	ED50 (Staphylococcus aureus [3]; [4]) [mg/kg]	ED50 (Staphylococcus aureus [3]) [mg/kg]	MIC (Escherichia coli; 24 h) [µg/mL]	MIC [1] [µg/mL]
CNC(=O)NCC1CN(c2ccc(S(C)(=O)=O)cc2)C(=O)O1 (stereo not drawn) [Example 35]	200 (≈ 611 µM)	25 (≈ 76.4 µM)		35.8			
CC(=O)NCC1CN(c2cccc(C(C)=O)c2)C(=O)O1 (stereo not drawn) [Example 37]	> 200	200 (≈ 724 µM)		62.9			
C=CC(=O)NCC1CN(c2ccc(SC)cc2)C(=O)O1 (stereo not drawn) [Example 40]	> 200	12.5 (≈ 42.8 µM)		53.1			
COc1ccc(N2CC(CNC(C)=O)OC2=O)cc1 (stereo not drawn) [Example 44]	> 200	100 (≈ 378 µM)		30.3			
CCCOC(=O)NCC1CN(c2ccc(S(C)(=O)=O)cc2)C(=O)O1 (stereo not drawn) [Example 70]	> 200	50 (≈ 140 µM)		51.7			
COC(OC)C(=O)NCC1CN(c2ccc(SC)cc2)C(=O)O1 (stereo not drawn) [Example 73]	> 200	> 200		59.5			
COC(OC)C(=O)NCC1CN(c2ccc(S(C)(=O)=O)cc2)C(=O)O1 (stereo not drawn) [Example 74]	> 200	100 (≈ 269 µM)		96.6			
CCOC(OCC)C(=O)NCC1CN(c2ccc(SC)cc2)C(=O)O1 (stereo not drawn) [Example 75]	> 200	> 200		130			
CCOC(OCC)C(=O)NCC1CN(c2ccc(S(C)(=O)=O)cc2)C(=O)O1 (stereo not drawn) [Example 76]	> 200	> 200		58			
CS(=O)(=O)c1ccc(N2CC(CNC(N)=O)OC2=O)cc1 (stereo not drawn) [Example 77]	> 200	200 (≈ 638 µM)	70.9				
CS(=O)(=O)c1ccc(N2CC(CNC(=O)C(N)c3ccccc3)OC2=O)cc1 (stereo not drawn) [Example 78]	> 200	> 200	67.1				
C=CC(=O)NCC1CN(c2ccc([S+](C)[O-])cc2)C(=O)O1 (stereo not drawn) [Example 91]	> 200	25 (≈ 81.1 µM)		50.7			
CSc1ccc(N2CC(CNC(=O)CCCl)OC2=O)cc1 (stereo not drawn) [Example 92]	> 200	50 (≈ 152 µM)		31			
C[S+]([O-])c1ccc(N2CC(CNC(=O)CCCl)OC2=O)cc1 (stereo not drawn) [Example 93]	> 200	50 (≈ 145 µM)		> 120			
CC(=O)NCC1CN(c2ccc(C#CCO)cc2)C(=O)O1 (stereo not drawn) [Example 103]	> 50	12.5 (≈ 43.4 µM)					
CC(=O)NCC1CN(c2ccc(C(O)CO)cc2)C(=O)O1 (stereo not drawn) [Example 104]	> 128	32 (≈ 109 µM)					
CC(=O)NCC1CN(c2ccc(CO)cc2)C(=O)O1 (stereo not drawn) [Example 106]	> 128	64 (≈ 242 µM)					
